Measured values: ChEMBL document CHEMBL6134864, “Discovery of FLT3-ITD Inhibitor Clifutinib: A Novel Biphenylacetylene Urea Derivative in Clinical Trials for the Treatment of Relapsed/Refractory FLT3-ITD+ Acute Myeloid Leukemia” (J Med Chem, 2025)
Activity calls are given as the source filed them. The rule behind the calls is not given here.

Assays:
OVCAR-3 = test: cells; details: Homo sapiens, OVCAR-3, 72 h
Description: Antiproliferative activity against human OVCAR-3 cells assessed as inhibition of cell growth incubated for 72 hrs by celltiter-glo luminescent cell viability assay

[1] = Tmax in dog plasma at 1 mg/kg, iv measured up to 24 hrs by LC-MS/MS analysis; format: ADME, organism-based, Canis lupus familiaris
HCT-116 = test: cells; details: Homo sapiens, HCT-116, 72 h
Description: Antiproliferative activity against human HCT-116 cells assessed as inhibition of cell growth incubated for 72 hrs by celltiter-glo luminescent cell viability assay

[2] = target: Mast/stem cell growth factor receptor Kit (Homo sapiens, UniProt P10721, Y823D); test: Inhibition of human KIT Y823D mutant by biochemical kinase binding assay
[3] = target: Discoidin domain-containing receptor 2 (Homo sapiens, UniProt Q16832, T654M); test: Inhibition of human DDR2 T654M mutant by biochemical kinase binding assay
[4] = Half life in NOD/SCID mouse tumor xenografted with human MV4-11 cells at 0.5 mg/kg, po measured up to 24 hrs by LC-MS/MS analysis; format: ADME, organism-based, Neoplasm
[5] = Cmax in mouse plasma at 10 mg/kg, po measured up to 24 hrs by LC-MS/MS analysis; format: ADME, organism-based
[6] = AUC (0 to t) in NOD/SCID mouse tumor xenografted with human MV4-11 cells at 0.5 mg/kg, po measured up to 24 hrs by LC-MS/MS analysis; format: ADME, organism-based, Neoplasm
MOLM-13 [7] = test: Antitumor activity against human MOLM-13 cells xenografted in NOD/SCID mouse model assessed as tumor growth inhibition at 0.5 mg/kg/day, po by caliper analysis relative to control; format: functional; details: read-out: TGI
[8] = Tmax in mouse plasma at 2 mg/kg, iv measured up to 24 hrs by LC-MS/MS analysis; format: ADME, organism-based
[9] = system: Receptor-type tyrosine-protein kinase FLT3 (Homo sapiens), P36888 [UNDEFINED MUTATION]; test: Inhibition of FLT3 in human MV4-11 cells harbouring FLT3-ITD mutant assessed as inhibition of STAT5 phosphorylation level measured after 2 hrs by Western blot analysis; format: cell-based; details: dose 1-1000 nM
[10] = system: Receptor-type tyrosine-protein kinase FLT3 (Homo sapiens), P36888 [UNDEFINED MUTATION]; test: Inhibition of FLT3 in human MV4-11 cells harbouring FLT3-ITD mutant assessed as effect on FLT3 protein level at 1 to 1000 nM measured after 2 hrs by Western blot analysis; format: cell-based; details: dose 1-1000 nM
[11] = AUClast in rat plasma at 5 mg/kg, po measured up to 24 hrs by LC-MS/MS analysis; format: ADME, organism-based
[12] = Cmax in NOD/SCID mouse plasma xenografted with human MV4-11 cells at […], po measured up to 24 hrs by LC-MS/MS analysis; format: ADME, organism-based; details: dose 1.5 mg/kg
Cytochrome P450 2B6 = Cytochrome P450 2B6 (Homo sapiens, UniProt P20813); test: Inhibition of CYP2B6 in human liver microsomes by UPLC-MS/MS analysis; format: ADME, Microsome
[13] = target: Proto-oncogene tyrosine-protein kinase receptor Ret (Homo sapiens, UniProt P07949, G691S); test: Inhibition of human RET G691S mutant by biochemical kinase binding assay
[14] = Volume of distribution at steady state in monkey plasma at 1 mg/kg, iv measured up to 24 hrs by LC-MS/MS analysis; format: ADME, organism-based, Macaca mulatta; details: rhesus monkey, read-out: Vdss
[15] = AUC (0 to t) in NOD/SCID mouse plasma xenografted with human MV4-11 cells at 0.5 mg/kg, po measured up to 24 hrs by LC-MS/MS analysis; format: ADME, organism-based
[16] = Half life in mouse plasma at 2 mg/kg, iv measured up to 24 hrs by LC-MS/MS analysis; format: ADME, organism-based
786-0 = test: cells; details: Homo sapiens, 786-0, 72 h
Description: Antiproliferative activity against human 786-0 cells assessed as inhibition of cell growth incubated for 72 hrs by celltiter-glo luminescent cell viability assay

Cytochrome P450 2D6 = Cytochrome P450 2D6 (Homo sapiens, UniProt P10635); test: Inhibition of CYP2D6 in human liver microsomes by UPLC-MS/MS analysis; format: ADME, Microsome
[17] = Cmax in NOD/SCID mouse tumor xenografted with human MV4-11 cells at 4.5 mg/kg, po measured up to 24 hrs by LC-MS/MS analysis; format: ADME, organism-based, Neoplasm
BaF3 [18] = test: Antiproliferative activity against mouse BaF3 cells harbouring FLT3-ITD assessed as inhibition of cell growth incubated for 72 hrs by celltiter-glo luminescent cell viability assay; format: functional, cell-based; details: BaF3, 72 h
COLO 205 = test: cells; details: Homo sapiens, COLO 205, 72 h
Description: Antiproliferative activity against human COLO 205 cells assessed as inhibition of cell growth incubated for 72 hrs by celltiter-glo luminescent cell viability assay

MOLM-13 [19] = test: Antitumor activity against human MOLM-13 cells xenografted in NOD/SCID mouse model assessed as tumor growth inhibition at […], po in presence of Ara-C by caliper analysis relative to control; format: functional; details: dose 1.5 mg/kg/day, read-out: TGI
[20] = AUC last in monkey plasma at 1 mg/kg, iv measured up to 24 hrs by LC-MS/MS analysis; format: ADME, organism-based, Macaca mulatta; details: rhesus monkey, in vivo
BaF3 [21] = test: Antiproliferative activity against mouse BaF3 cells harbouring FLT3-ITD-Y842R mutant assessed as inhibition of cell growth incubated for 72 hrs by celltiter-glo luminescent cell viability assay; format: functional, cell-based; details: BaF3, 72 h
[22] = target: Receptor-type tyrosine-protein kinase FLT3 (Homo sapiens) (UniProt P36888); test: Inhibition of FLT3 in human MV4-11 cells harbouring FLT3-ITD mutant assessed as effect on STAT5 protein level at 1 to 1000 nM measured after 2 hrs by Western blot analysis; format: cell-based; details: dose 1-1000 nM
[23] = Tmax in dog plasma at 5 mg/kg, po measured up to 24 hrs by LC-MS/MS analysis; format: ADME, organism-based, Canis lupus familiaris
BaF3 [24] = test: Antiproliferative activity against mouse BaF3 cells harbouring FLT3-ITD-D835Y mutant assessed as inhibition of cell growth incubated for 72 hrs by celltiter-glo luminescent cell viability assay; format: functional, cell-based; details: BaF3, 72 h
[25] = Half life in dog plasma at 1 mg/kg, iv measured up to 24 hrs by LC-MS/MS analysis; format: ADME, organism-based, Canis lupus familiaris
Cytochrome P450 2C9 = Cytochrome P450 2C9 (Homo sapiens, UniProt P11712); test: Inhibition of CYP2C9 in human liver microsomes by UPLC-MS/MS analysis; format: ADME, Microsome
[26] = Cmax in NOD/SCID mouse tumor xenografted with human MV4-11 cells at 0.5 mg/kg, po measured up to 24 hrs by LC-MS/MS analysis; format: ADME, organism-based, Neoplasm
DU-145 = test: cells; details: Homo sapiens, DU-145, 72 h
Description: Antiproliferative activity against human DU-145 cells assessed as inhibition of cell growth incubated for 72 hrs by celltiter-glo luminescent cell viability assay

[27] = Half life in NOD/SCID mouse plasma xenografted with human MV4-11 cells at 4.5 mg/kg, po measured up to 24 hrs by LC-MS/MS analysis; format: ADME, organism-based
BaF3 [28] = test: cells; details: Mus musculus, BaF3, 72 h
[29] = Half life in dog plasma at 5 mg/kg, po measured up to 24 hrs by LC-MS/MS analysis; format: ADME, organism-based, Canis lupus familiaris
BaF3 [30] = test: Antiproliferative activity against mouse BaF3 cells harbouring FLT3-ITD-N676D mutant assessed as inhibition of cell growth incubated for 72 hrs by celltiter-glo luminescent cell viability assay; format: functional, cell-based; details: BaF3, 72 h

Sequence of Receptor-type tyrosine-protein kinase FLT3 (Homo sapiens), P36888 [UNDEFINED MUTATION] (P36888 whole entry, looked up, change not shown): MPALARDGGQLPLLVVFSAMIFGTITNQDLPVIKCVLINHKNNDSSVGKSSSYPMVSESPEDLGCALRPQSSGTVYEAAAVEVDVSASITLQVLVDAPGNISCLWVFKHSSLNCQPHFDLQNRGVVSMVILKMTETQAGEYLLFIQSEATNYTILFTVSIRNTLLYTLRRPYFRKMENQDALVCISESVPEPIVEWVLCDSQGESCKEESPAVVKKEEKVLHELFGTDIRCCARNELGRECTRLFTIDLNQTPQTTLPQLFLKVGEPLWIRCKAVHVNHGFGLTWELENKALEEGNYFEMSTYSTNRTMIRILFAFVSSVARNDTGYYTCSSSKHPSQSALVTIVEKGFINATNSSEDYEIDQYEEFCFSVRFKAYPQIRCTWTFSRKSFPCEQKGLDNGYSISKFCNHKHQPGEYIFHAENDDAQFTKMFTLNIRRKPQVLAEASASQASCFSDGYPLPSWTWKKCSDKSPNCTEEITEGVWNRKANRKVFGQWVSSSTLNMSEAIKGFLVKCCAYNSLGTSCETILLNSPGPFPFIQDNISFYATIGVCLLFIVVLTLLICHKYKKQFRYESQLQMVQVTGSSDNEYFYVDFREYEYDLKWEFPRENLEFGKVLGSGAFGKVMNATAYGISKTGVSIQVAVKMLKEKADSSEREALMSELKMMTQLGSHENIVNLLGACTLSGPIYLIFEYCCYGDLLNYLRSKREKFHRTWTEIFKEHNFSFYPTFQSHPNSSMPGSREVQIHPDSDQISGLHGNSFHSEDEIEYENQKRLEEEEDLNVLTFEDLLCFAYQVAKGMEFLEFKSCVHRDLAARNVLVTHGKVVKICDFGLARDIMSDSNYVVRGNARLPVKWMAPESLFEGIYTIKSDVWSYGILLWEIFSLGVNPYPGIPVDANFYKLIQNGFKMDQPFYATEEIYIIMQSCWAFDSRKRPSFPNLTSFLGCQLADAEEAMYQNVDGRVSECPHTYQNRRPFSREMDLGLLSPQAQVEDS
Sequence of Cytochrome P450 2D6 (P10635 whole entry): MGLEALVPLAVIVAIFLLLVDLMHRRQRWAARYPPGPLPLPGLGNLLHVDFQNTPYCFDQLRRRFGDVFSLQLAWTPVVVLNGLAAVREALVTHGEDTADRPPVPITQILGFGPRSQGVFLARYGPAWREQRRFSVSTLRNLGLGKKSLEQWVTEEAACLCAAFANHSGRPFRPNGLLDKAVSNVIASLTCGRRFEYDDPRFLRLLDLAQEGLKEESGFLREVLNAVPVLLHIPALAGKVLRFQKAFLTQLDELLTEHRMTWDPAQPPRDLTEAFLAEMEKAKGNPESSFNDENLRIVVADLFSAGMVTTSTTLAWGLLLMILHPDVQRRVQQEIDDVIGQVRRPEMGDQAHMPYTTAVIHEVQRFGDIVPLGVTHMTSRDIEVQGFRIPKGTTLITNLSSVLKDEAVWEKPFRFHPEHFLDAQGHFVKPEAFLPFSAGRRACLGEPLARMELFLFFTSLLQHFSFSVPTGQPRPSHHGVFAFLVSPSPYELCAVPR
Sequence of Proto-oncogene tyrosine-protein kinase receptor Ret (P07949 29-1114 G691S limits assumed): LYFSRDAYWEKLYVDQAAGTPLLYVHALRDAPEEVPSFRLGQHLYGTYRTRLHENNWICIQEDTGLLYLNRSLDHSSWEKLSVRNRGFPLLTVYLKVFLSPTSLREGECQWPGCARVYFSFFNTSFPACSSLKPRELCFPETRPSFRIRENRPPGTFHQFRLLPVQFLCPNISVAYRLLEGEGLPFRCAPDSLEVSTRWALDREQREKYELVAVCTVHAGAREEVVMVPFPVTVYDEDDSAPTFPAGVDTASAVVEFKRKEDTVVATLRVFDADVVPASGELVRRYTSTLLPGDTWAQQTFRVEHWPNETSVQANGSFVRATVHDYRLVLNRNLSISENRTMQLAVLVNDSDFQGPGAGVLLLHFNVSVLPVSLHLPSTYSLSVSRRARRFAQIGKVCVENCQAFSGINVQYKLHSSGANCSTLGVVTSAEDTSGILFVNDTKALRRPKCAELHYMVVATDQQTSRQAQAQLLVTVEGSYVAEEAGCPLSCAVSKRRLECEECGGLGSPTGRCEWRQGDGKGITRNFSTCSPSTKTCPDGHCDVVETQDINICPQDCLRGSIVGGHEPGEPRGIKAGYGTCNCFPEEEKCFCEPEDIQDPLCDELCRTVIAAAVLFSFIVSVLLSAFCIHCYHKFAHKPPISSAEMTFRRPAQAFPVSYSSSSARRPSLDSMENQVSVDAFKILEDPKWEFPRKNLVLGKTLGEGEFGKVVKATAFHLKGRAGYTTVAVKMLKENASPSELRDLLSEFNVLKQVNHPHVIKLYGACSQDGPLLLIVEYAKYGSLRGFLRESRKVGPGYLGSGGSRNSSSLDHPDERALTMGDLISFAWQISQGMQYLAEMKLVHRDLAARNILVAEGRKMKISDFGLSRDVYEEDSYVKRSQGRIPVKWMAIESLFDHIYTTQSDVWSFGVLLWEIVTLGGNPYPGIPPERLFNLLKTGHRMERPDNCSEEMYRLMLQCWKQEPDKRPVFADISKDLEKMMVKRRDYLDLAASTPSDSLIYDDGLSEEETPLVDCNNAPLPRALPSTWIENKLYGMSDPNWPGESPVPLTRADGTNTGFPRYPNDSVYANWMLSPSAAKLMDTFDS
Sequence of Mast/stem cell growth factor receptor Kit (P10721 26-976 Y823D limits assumed): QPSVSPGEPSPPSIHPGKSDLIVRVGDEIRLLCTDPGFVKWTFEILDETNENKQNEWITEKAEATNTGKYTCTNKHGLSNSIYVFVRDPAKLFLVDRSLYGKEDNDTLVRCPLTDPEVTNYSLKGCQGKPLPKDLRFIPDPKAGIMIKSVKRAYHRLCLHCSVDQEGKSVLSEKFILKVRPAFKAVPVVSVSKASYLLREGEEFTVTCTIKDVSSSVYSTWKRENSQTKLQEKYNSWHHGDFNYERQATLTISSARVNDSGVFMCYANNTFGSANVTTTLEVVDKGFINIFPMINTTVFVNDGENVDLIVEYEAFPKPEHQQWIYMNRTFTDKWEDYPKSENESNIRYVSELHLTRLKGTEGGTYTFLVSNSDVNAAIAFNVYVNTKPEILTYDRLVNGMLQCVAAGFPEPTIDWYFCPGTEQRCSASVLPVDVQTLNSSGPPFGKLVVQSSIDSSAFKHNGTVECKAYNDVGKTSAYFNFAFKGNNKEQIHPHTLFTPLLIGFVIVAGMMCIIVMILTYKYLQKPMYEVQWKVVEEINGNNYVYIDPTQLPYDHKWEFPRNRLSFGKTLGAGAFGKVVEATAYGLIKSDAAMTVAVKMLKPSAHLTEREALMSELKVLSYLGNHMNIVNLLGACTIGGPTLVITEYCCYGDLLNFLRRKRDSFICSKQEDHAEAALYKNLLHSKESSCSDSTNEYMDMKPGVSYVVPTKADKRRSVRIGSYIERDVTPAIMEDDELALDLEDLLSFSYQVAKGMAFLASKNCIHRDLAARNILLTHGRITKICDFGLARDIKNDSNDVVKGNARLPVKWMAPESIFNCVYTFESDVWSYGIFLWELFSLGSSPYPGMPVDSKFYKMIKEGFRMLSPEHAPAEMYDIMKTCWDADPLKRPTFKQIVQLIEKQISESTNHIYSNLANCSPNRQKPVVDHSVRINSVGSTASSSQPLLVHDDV
Sequence of Discoidin domain-containing receptor 2 (Q16832 22-855 T654M limits assumed): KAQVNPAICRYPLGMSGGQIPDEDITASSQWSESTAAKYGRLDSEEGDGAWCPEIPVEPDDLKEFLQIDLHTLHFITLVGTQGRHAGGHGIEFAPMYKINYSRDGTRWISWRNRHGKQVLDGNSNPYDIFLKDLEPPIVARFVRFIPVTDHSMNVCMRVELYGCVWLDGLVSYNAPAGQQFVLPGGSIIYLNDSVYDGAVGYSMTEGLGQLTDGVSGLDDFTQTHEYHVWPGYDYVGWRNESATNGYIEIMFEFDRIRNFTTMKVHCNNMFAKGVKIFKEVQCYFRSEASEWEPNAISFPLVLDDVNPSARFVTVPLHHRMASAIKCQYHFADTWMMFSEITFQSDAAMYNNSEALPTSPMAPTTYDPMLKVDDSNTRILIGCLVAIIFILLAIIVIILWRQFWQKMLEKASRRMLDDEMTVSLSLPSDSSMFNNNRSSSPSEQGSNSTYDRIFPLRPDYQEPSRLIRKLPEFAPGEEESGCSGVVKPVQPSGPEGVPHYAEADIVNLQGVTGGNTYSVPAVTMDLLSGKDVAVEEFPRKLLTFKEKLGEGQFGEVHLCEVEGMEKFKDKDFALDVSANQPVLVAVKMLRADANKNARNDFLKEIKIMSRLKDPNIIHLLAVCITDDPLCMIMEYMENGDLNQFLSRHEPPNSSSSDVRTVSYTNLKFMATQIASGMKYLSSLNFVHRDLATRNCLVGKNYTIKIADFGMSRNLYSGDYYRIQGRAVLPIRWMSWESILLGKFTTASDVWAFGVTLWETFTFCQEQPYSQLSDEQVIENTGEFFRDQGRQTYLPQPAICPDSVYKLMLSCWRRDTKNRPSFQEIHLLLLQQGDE
Sequence of Receptor-type tyrosine-protein kinase FLT3 (Homo sapiens) (P36888 whole entry): as the sequence (P36888 whole entry, looked up, change not shown) above
Sequence of Cytochrome P450 2B6 (P20813 whole entry): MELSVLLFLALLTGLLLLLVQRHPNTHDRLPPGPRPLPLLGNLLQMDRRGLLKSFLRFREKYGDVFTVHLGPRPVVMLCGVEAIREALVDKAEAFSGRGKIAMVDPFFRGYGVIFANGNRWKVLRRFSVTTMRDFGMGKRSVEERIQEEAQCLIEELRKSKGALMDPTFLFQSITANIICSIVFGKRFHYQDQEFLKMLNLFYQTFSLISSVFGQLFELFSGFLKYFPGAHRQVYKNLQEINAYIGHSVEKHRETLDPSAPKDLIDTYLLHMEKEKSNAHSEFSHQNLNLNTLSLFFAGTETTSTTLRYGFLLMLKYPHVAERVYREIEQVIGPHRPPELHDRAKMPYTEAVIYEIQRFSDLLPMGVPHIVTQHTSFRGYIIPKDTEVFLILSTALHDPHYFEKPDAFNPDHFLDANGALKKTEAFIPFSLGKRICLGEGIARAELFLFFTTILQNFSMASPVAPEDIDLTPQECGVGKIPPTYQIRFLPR

- IC50 (OVCAR-3): > 10000 nM
- Tmax [1]: 4.98 min
- IC50 (HCT-116): 8500 nM
- IC50 [2]: 283 nM
- IC50 [3]: 422 nM
- half-life [4]: 11.3 h
- Cmax [5]: 1660 ng/mL
- AUC(0-t) at 24 h [6]: 380 ng·h/mL
- Tmax [8]: 4.98 min
- inhibition [9]: Dose-dependent-effect
- inhibition [10]: inactive
- AUC(0-t) at 24 h [11]: 8310 ng·h/mL
- Cmax at 24 h [12]: 52.8 ng/mL
- IC50 (Cytochrome P450 2B6): > 33300 nM
- IC50 [13]: 439 nM
- Vd [14]: 0.996 L/kg
- AUC(0-t) at 24 h [15]: 58.9 ng·h/mL
- half-life [16]: 1.17 h
- IC50 (786-0): 3400 nM
- IC50 (Cytochrome P450 2D6): > 33300 nM
- Cmax [17]: 307 ng/mL
- IC50 (BaF3 [18]): 0.9 nM
- IC50 (COLO 205): > 10000 nM
- AUClast [20]: 10100 ng·h/mL
- IC50 (BaF3 [21]): 21.8 nM
- inhibition [22]: inactive
- Tmax [23]: 1.67 h
- IC50 (BaF3 [24]): 47.6 nM
- half-life [25]: 6.28 h
- IC50 (Cytochrome P450 2C9): > 33300 nM
- Cmax [26]: 23.3 ng/mL
- IC50 (DU-145): > 10000 nM
- half-life [27]: 3.82 h
- IC50 (BaF3 [28]): 4.1 nM
- half-life [29]: 7.41 h
- IC50 (BaF3 [30]): 6.9 nM
Compound: CC(C)(C)c1cc(NC(=O)Nc2ccc(C#Cc3ccc(OCCCN4CCOCC4)cc3)cc2)no1
- inhibition in vivo at 0.5 mg/kg/day (MOLM-13 [7]): 39%
- inhibition in vivo at […] (MOLM-13 [19]): 80%
